Data published in US20240199648A1, “MAP4K1 INHIBITORS” (Blueprint Medicines Corporation, priority 2021, published 2024).

The molecules below were run against T1, MAP4K1 (HPK1) (Homo sapiens, UniProt Q92918) (assay: Inhibition of MAP4K1 biochemical enzymatic activity (EZReader 2 electrophoretic mobility shift assay)). Conditions: HPK1 (Invitrogen), S6K2tide 1.5 μM, 120 min; ATP 26 μM or 1000 μM (not stated which).
T1 construct: purchased Invitrogen
Description: MAP4K1 (HPK1) and relevant off-target enzymatic activity was monitored using the Perkin Elmer electrophoretic mobility shift technology platform—the EZReader 2. […] Within the linear, steady-state phase of the kinase enzymatic reaction, the mixed pool of phosphorylated (product) and non-phosphorylated (substrate) peptides was passed through the microfluidic system of the PerkinElmer EZ Reader 2, under an applied electric potential difference. The presence of the phosphate group on the product peptide provided a difference in mass and charge between that of the substrate peptide, resulting in a separation of the substrate and product pools in the sample (Perrin et al. 2010). As the product and substrate peptide mixture passes the lasers within the instrument, these pools are detected (λex=488 nm, λem=568 nm) and resolved as separate peaks. The ratio between these peaks reflects the activity of the compound at that concentration, in that well, under those conditions.
Inhibitors were dissolved in 100% DMSO at a stock concentration of 10 mM. A 100×, 10-point, 4-fold serial dilution of each inhibitor was created in 100% DMSO either manually or on a Hamilton STAR liquid handler, starting at a relevant concentration, usually 1 mM. A volume of 0.130 μL of each concentration was transferred to the relevant wells of a 384-well plate (Greiner 781 201) in diplicate using a TTPLabtech Mosquito nano-litre dispenser. Using a Multidrop Combi, the remaining constituents of the kinase reaction were added to the 130 nL of dosed compound as follows (see table below for final reaction details):
Enzyme activity assays at the ^APPKM for ATP or 1 mM ATP: In each well of a 384-well plate, 0.1-15 nM of untreated enzyme was incubated in a total of 13 μL of buffer (100 mM HEPES pH 7.5, 0.015% Brij 35, 10 mM MgCl2, 1 mM DTT) with 1.5 μM fluorescent peptid and 20-1000 μM ATP, at 25° C., for 60-180 minutes in the presence or absence of a dosed concentration series of compound (1% DMSO final concentration). The kinase reactions were stopped by the addition of 70 μl of Stop buffer (100 mM HEPES pH 7.5, 0.015% Brij 35, 35 mM EDTA and 0.2% of Coating Reagent 3 (Caliper Lifesciences)). The plates were read on a Caliper EZReader 2 as described above.

T1 sequence (Q92918 whole entry): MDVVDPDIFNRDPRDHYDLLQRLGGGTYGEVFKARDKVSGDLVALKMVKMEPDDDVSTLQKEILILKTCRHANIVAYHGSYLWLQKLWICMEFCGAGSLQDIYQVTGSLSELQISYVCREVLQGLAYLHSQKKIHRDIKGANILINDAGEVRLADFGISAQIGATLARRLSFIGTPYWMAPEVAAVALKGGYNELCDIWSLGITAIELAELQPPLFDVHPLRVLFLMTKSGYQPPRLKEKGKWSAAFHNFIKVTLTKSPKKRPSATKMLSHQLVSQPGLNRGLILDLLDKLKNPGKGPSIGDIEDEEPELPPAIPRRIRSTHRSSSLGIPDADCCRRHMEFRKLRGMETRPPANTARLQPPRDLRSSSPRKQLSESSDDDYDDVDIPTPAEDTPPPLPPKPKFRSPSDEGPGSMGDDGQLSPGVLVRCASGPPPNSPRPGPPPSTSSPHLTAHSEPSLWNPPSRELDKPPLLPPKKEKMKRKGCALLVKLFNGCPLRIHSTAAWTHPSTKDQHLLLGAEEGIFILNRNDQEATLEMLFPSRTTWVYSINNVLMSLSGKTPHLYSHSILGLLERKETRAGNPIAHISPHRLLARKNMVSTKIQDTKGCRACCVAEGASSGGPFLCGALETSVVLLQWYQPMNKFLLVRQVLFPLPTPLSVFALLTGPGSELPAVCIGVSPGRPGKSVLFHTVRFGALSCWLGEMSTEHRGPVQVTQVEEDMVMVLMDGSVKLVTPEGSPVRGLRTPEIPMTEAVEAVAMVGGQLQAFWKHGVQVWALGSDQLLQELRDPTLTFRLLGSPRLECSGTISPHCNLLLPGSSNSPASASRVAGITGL

Row | Structure (SMILES) | IC50 [nM]
1 | CC[C@@H](N)c1cnc(OC2CN(C(=O)[C@@H]3C[C@@H]3F)C2)c2cnc(Nc3ccc4c(n3)[C@@H](C)[C@H](C)OC4=O)cc12 (single isomer, unassigned) [Compound 58] | 0.75
2 | CO[C@@H](C)C(=O)N1CC(Oc2ncc(C(C)(C)N)c3cc(Nc4ccc5c(n4)[C@@H](C)C(C)(C)OC5=O)ncc23)C1 (single isomer, unassigned) [Compound 86] | 0.27
3 | CO[C@H](C)C(=O)N1CC(Oc2ncc(C(C)(C)N)c3cc(Nc4ccc5c(n4)[C@@H](C)C(C)(C)OC5=O)ncc23)C1 (single isomer, unassigned) [Compound 88] | 0.21
4 | C[C@@H]1c2nc(Nc3cc4c(C(C)(C)N)cnc(OC[C@@H]5C[C@H]5C(=O)N(C)C)c4cn3)ccc2C(=O)OC1(C)C (single isomer, unassigned) [Compound 104] | 0.2
5 | C[C@@H]1c2nc(Nc3cc4c(C(C)(C)N)cnc(OC[C@H]5C[C@@H]5C(=O)N(C)C)c4cn3)ccc2C(=O)OC1(C)C (single isomer, unassigned) [Compound 105] | 0.2
6 | C[C@@H]1c2nc(Nc3cc4c(C(C)(C)N)cnc(OC[C@H]5C[C@H]5C(=O)N(C)C)c4cn3)ccc2C(=O)OC1(C)C (single isomer, unassigned) [Compound 106] | 0.39
7 | C[C@@H]1c2nc(Nc3cc4c(C(C)(C)N)cnc(OC[C@@H]5C[C@@H]5C(=O)N(C)C)c4cn3)ccc2C(=O)OC1(C)C (single isomer, unassigned) [Compound 107] | 0.31
8 | CC[C@H](N)c1cnc(O[C@H]2C[C@@H](C(=O)N3CC(OC)C3)C2)c2cnc(Nc3ccc4c(n3)[C@@H](C)C(C)(C)OC4=O)cc12 (single isomer, unassigned) [Compound 126] | 1.81
9 | COC[C@@](C)(N)c1cnc(OC2CN(C(=O)C3CC3)C2)c2cnc(Nc3ccc4c(n3)[C@@H](C)C(C)(C)OC4=O)cc12 [Compound 16] | 0.47
10 | CC(=O)N(C)CCOc1ncc(C(C)(C)N)c2cc(Nc3ccc4c(n3)[C@@H](C)C(C)(C)OC4=O)ncc12 [Compound 28] | 0.29
11 | CC(=O)N1CC(Oc2ncc(C(C)(C)N)c3cc(Nc4ccc5c(n4)C4(CC4)C(C)(C)OC5=O)ncc23)C1 [Compound 30] | 0.2

Results, then the molecule that gave them:

Row | IC50 [nM] | Structure (SMILES)
12 | 0.49 | CC(=O)N1CC(Oc2ncc(C(C)(C)N)c3cc(Nc4ccc5c(n4)[C@H](C)COC5=O)ncc23)C1 (single isomer, unassigned) [Compound 17]
13 | 3.06 | CC(=O)N1CC(Oc2ncc(C(C)(C)N)c3cc(Nc4ccc5c(n4)[C@@H](C)COC5=O)ncc23)C1 (single isomer, unassigned) [Compound 18]
14 | 0.38 | CCC(=O)N1CC(Oc2ncc(C(C)(C)N)c3cc(Nc4ccc5c(n4)[C@@H](C)[C@H](C)OC5=O)ncc23)C1 [Compound 2]
15 | 0.32 | CC[C@@](C)(N)c1cnc(OC2CN(C(C)=O)C2)c2cnc(Nc3ccc4c(n3)[C@@H](C)[C@H](C)OC4=O)cc12 [Compound 23]
16 | 0.89 | CC(=O)N1CC[C@@H](Oc2ncc(C(C)(C)N)c3cc(Nc4ccc5c(n4)[C@@H](C)[C@H](C)OC5=O)ncc23)C1 [Compound 24]
17 | 1.38 | CC(=O)N1CC[C@H](Oc2ncc(C(C)(C)N)c3cc(Nc4ccc5c(n4)[C@@H](C)[C@H](C)OC5=O)ncc23)C1 [Compound 25]
18 | 0.31 | CC(=O)N1CC(C)(Oc2ncc(C(C)(C)N)c3cc(Nc4ccc5c(n4)[C@@H](C)[C@H](C)OC5=O)ncc23)C1 [Compound 26]
19 | 0.3 | COC(=O)N1CC(Oc2ncc(C(C)(C)N)c3cc(Nc4ccc5c(n4)[C@@H](C)[C@H](C)OC5=O)ncc23)C1 [Compound 27]
20 | 0.17 | CC[C@@](C)(N)c1cnc(OC2CN(C(C)=O)C2)c2cnc(Nc3ccc4c(n3)[C@@H](C)C(C)(C)OC4=O)cc12 [Compound 32]
21 | 0.3 | COC(=O)N1CC[C@H](Oc2ncc(C(C)(C)N)c3cc(Nc4ccc5c(n4)[C@@H](C)[C@H](C)OC5=O)ncc23)C1 [Compound 35]
22 | 0.65 | COC(=O)N1CC[C@@H](Oc2ncc(C(C)(C)N)c3cc(Nc4ccc5c(n4)[C@@H](C)[C@H](C)OC5=O)ncc23)C1 [Compound 36]
